Where two headings read alike, the source gives them in different places.

Viability data for one molecule are collected here from patent US20250271418A1, “ANTICANCER DRUG ASSESSMENT METHODS AND ANTICANCER DRUG ASSESSMENT KITS” (TOPPAN HOLDINGS INC., priority 2022, published 2025).

Assay in all cases: cells
Experiment [1] deals with HT29, a human colorectal adenocarcinoma cell line. The conditions noted are these: 72 h, read-out: Cell viability (%).
Experiment [2] shares this test system. The conditions noted are these: HT-29, 72 h, read-out: Cell viability (%).
For experiment [3] the test system is unchanged. As to conditions: 72 h, read-out: Cell viability (%). This is another data set of the same source.

As for `O=c1[nH]cc(F)c(=O)[nH]1` [5-FU, 5-fluorouracil], the viability (in general, the share of living cells, or the viability signal relative to a control) at 1 µM in experiment [1] is 100 ± 31.2%. Further, in experiment [2], the viability at 1 µM worked out at 99.3 ± 21%, the viability at 10 µM was determined as 75.3 ± 12.4%, the viability at 100 µM came out at 54.3 ± 10.2% and the viability at 1000 µM was 40.3 ± 8.34%. Also, the viability at 1 µM in experiment [3] amounted to 100 ± 13.2%.
